In brackets after ≈: the same amount, converted by molar mass. Read-outs that look alike come from different tables or passages of the source.
Assays:
Assay type in all cases: cell-based
Staph. aureus ATCC6538P = assay: MIC, Staph. aureus ATCC6538P; conditions: Staphylococcus aureus
Text: (§1) The minimum inhibitory concentration (MIC) of compounds (1) according to the present invention is illustrated in Table 1.

Staph. aureus MS353 = assay: MIC, Staph. aureus MS353; conditions: Staphylococcus aureus
Text: as §1

Staph. aureus MS353C36 = assay: MIC, Staph. aureus MS353C36 (erythromycin resistant strain); conditions: Staphylococcus aureus
Text: as §1

Staph. aureus MS353 AO = assay: MIC, Staph. aureus MS353 AO; conditions: Staphylococcus aureus, MS353AO
Text: as §1

Staph. aureus 0119 = assay: MIC, Staph. aureus 0119; conditions: Staphylococcus aureus
Text: as §1

Staph. aureus 0126 = assay: MIC, Staph. aureus 0126; conditions: Staphylococcus aureus
Text: as §1

Staph. aureus 0127 = assay: MIC, Staph. aureus 0127; conditions: Staphylococcus aureus
Text: as §1

Staph. aureus Smith = assay: MIC, Staph. aureus Smith; conditions: Staphylococcus aureus
Text: as §1

Strept. pyogenes N.Y.5 = assay: MIC, Strept. pyogenes N.Y.5; conditions: Streptococcus pyogenes
Text: as §1

Strept. pyogenes 1022 = assay: MIC, Strept. pyogenes 1022; conditions: Streptococcus pyogenes
Text: as §1

Strept. agalactiae 1020 = assay: MIC, Strept. agalactiae 1020; conditions: Streptococcus agalactiae
Text: as §1

[1] = tested on: Enterococcus faecalis 1501; assay: MIC, Enterococcus faecalis 1501
Text: as §1

[2] = tested on: Micrococcus luteus ATCC9341; assay: MIC, Micrococcus luteus ATCC9341
Text: as §1

[3] = tested on: Coryne. diphtheriae P.W.8; assay: MIC, Coryne. diphtheriae P.W.8; conditions: Corynebacterium diphtheriae
Text: as §1

[4] = tested on: Bacillus subtilis ATCC6633; assay: MIC, Bacillus subtilis ATCC6633
Text: as §1

E. coli NIHJ JC-2 = assay: MIC, E. coli NIHJ JC-2; conditions: Escherichia coli, NIHJJC2
Text: as §1

[5] = Staph. aureus MS353, read-out: MIC
[6] = Staph. aureus 0126, read-out: MIC
[7] = Staph. aureus Smith, read-out: MIC

SMILES | MIC (Staph. aureus ATCC6538P) | MIC (Staph. aureus MS353; [5]) | MIC (Staph. aureus MS353C36) | MIC (Staph. aureus MS353 AO) | MIC (Staph. aureus 0119) | MIC (Staph. aureus 0126; [6]) | MIC (Staph. aureus 0127) | MIC (Staph. aureus Smith; [7]) | MIC (Strept. pyogenes N.Y.5) | MIC (Strept. pyogenes 1022) | MIC (Strept. agalactiae 1020) | MIC [1] | MIC [2] | MIC [3] | MIC [4] | MIC (E. coli NIHJ JC-2) | MIC (Staph. aureus MS353; MS353) | MIC (Staph. aureus 0126; 0126) | MIC (Staph. aureus Smith)
CCC1OC(=O)CC(O)C(C)C(OC2OC(C)C(O)C(N(C)C)C2O)C(C)CC(C)C(=O)/C=C/C(C)=C/C1COC1OC(C)CC(=O)C1OC (stereo not shown) [Compound 1, 4"-deoxy-3"-demethoxy-3"-oxo-19-deformyldesmycosin] | 0.39 µg/mL (≈ 0.548 µM) | 0.39 µg/mL (≈ 0.548 µM) | 0.39 µg/mL (≈ 0.548 µM) | > 100 µg/mL | > 100 µg/mL | 1.56 µg/mL (≈ 2.19 µM) | > 100 µg/mL | 0.78 µg/mL (≈ 1.1 µM) | 0.2 µg/mL (≈ 0.281 µM) | 50 µg/mL (≈ 70.2 µM) | 0.39 µg/mL (≈ 0.548 µM) | 1.56 µg/mL (≈ 2.19 µM) | 0.2 µg/mL (≈ 0.281 µM) | 0.1 µg/mL (≈ 0.14 µM) | 0.1 µg/mL (≈ 0.14 µM) | > 100 µg/mL |  |  | 
CCC1OC(=O)CC(O)C(C)C(OC2OC(C)CC(N(C)C)C2O)C(C)CC(C)C(=O)/C=C/C(C)=C/C1COC1OC(C)C=C(OC)C1OC (stereo not shown) [Compound 2, 4',4"-dideoxy-3",4"-di-dehydro-19-deformyldesmycosin] | 0.2 µg/mL (≈ 0.282 µM) | 0.2 µg/mL (≈ 0.282 µM) | 0.2 µg/mL (≈ 0.282 µM) | > 100 µg/mL | > 100 µg/mL | 6.25 µg/mL (≈ 8.8 µM) | > 100 µg/mL | 0.39 µg/mL (≈ 0.549 µM) | 0.2 µg/mL (≈ 0.282 µM) | > 100 µg/mL | 0.39 µg/mL (≈ 0.549 µM) | 1.56 µg/mL (≈ 2.2 µM) | ≤ 0.05 µg/mL | 0.2 µg/mL (≈ 0.282 µM) | 0.1 µg/mL (≈ 0.141 µM) | > 100 µg/mL |  |  | 
C=C1CC(C)OC(OCC2/C=C(C)/C=C/C(=O)C(C)CC(C)C(OC3OC(C)C(O)C(N(C)C)C3O)C(C)C(O)CC(=O)OC2CC)C1OC (stereo not shown) [Compound 3, 4"-deoxy-3"-demethoxy-3"-methylene-19-deformyldesmycosin] | 0.39 µg/mL (≈ 0.549 µM) | 0.39 µg/mL (≈ 0.549 µM) | 0.39 µg/mL (≈ 0.549 µM) | > 100 µg/mL | > 100 µg/mL |  | > 100 µg/mL | 1.56 µg/mL (≈ 2.2 µM) | 0.78 µg/mL (≈ 1.1 µM) | 50 µg/mL (≈ 70.4 µM) | 0.1 µg/mL (≈ 0.141 µM) | 0.78 µg/mL (≈ 1.1 µM) | 0.1 µg/mL (≈ 0.141 µM) | ≤ 0.05 µg/mL | 0.1 µg/mL (≈ 0.141 µM) | > 100 µg/mL |  |  | 
C=C1CC(C)OC(OCC2/C=C(C)/C=C/C(=O)C(C)CC(C)C(OC3OC(C)CC(N(C)C)C3O)C(C)C(O)CC(=O)OC2CC)C1OC (stereo not shown) [Compound 4, 4',4"-di-deoxy-3"-demethoxy-3"-methylene-19-deformyldesmycosin] | 0.1 µg/mL (≈ 0.144 µM) | 0.2 µg/mL (≈ 0.288 µM) | 0.2 µg/mL (≈ 0.288 µM) | > 100 µg/mL | > 100 µg/mL | 0.78 µg/mL (≈ 1.12 µM) | 100 µg/mL (≈ 144 µM) | 0.39 µg/mL (≈ 0.562 µM) | 0.1 µg/mL (≈ 0.144 µM) | 3.13 µg/mL (≈ 4.51 µM) | ≤ 0.05 µg/mL | 0.39 µg/mL (≈ 0.562 µM) | ≤ 0.05 µg/mL | ≤ 0.05 µg/mL | 0.1 µg/mL (≈ 0.144 µM) | > 100 µg/mL |  |  | 
C=C1CC(C)OC(OCC2/C=C(C)/C=C/C(=O)C(C)CC(C)C(OC3OC(C)C(O)C(N(C)C)C3O)C(C)C(OC(=O)CC)CC(=O)OC2CC)C1OC (stereo not shown) [Compound 5, 4"-deoxy-3"-demethoxy-3"-methylene-3-0-propionyl-19-deformyldesmycosin] | 0.39 µg/mL (≈ 0.509 µM) | 0.78 µg/mL (≈ 1.02 µM) | 0.78 µg/mL (≈ 1.02 µM) | > 100 µg/mL | > 100 µg/mL |  | > 100 µg/mL | 0.78 µg/mL (≈ 1.02 µM) | 0.78 µg/mL (≈ 1.02 µM) | 100 µg/mL (≈ 131 µM) | 0.2 µg/mL (≈ 0.261 µM) | 1.56 µg/mL (≈ 2.04 µM) | 0.2 µg/mL (≈ 0.261 µM) | 0.2 µg/mL (≈ 0.261 µM) | ≤ 0.05 µg/mL | > 100 µg/mL |  |  | 
C=C1CC(C)OC(OCC2/C=C(C)/C=C/C(=O)C(C)CC(C)C(OC3OC(C)C(O)C(N(C)C)C3O)C(C)C(OC(=O)N(C)C)CC(=O)OC2CC)C1OC (stereo not shown) [Compound 6, 4"-deoxy-3"-demethoxy-3"-methylene-3-0-dimethylcarbamoyl-19-deformyldesmycosin] | 0.39 µg/mL (≈ 0.499 µM) | 0.39 µg/mL (≈ 0.499 µM) | 0.78 µg/mL (≈ 0.999 µM) | > 100 µg/mL | > 100 µg/mL |  | > 100 µg/mL | 1.56 µg/mL (≈ 2 µM) | 0.78 µg/mL (≈ 0.999 µM) | > 100 µg/mL | 0.2 µg/mL (≈ 0.256 µM) | 0.78 µg/mL (≈ 0.999 µM) | 0.2 µg/mL (≈ 0.256 µM) | 0.1 µg/mL (≈ 0.128 µM) | 0.1 µg/mL (≈ 0.128 µM) | > 100 µg/mL |  |  | 
CCC1OC(=O)CC(O)C(C)C(OC2OC(C)C(O)C(N(C)C)C2O)C(CC=O)CC(C)C(=O)/C=C/C(C)=C/C1COC1OC(C)C(O)C(OC)C1OC (stereo not shown) [Des, Desmycosin (4'-demycarosyltylosin), reference compound] | 0.78 µg/mL (≈ 1.01 µM) |  | 1.56 µg/mL (≈ 2.02 µM) | 100 µg/mL (≈ 130 µM) | > 100 µg/mL |  | > 100 µg/mL |  | 0.1 µg/mL (≈ 0.13 µM) | > 100 µg/mL | 0.2 µg/mL (≈ 0.259 µM) | 0.78 µg/mL (≈ 1.01 µM) | 0.2 µg/mL (≈ 0.259 µM) | 0.1 µg/mL (≈ 0.13 µM) | 0.78 µg/mL (≈ 1.01 µM) | > 100 µg/mL | 1.56 µg/mL (≈ 2.02 µM) | 1.56 µg/mL (≈ 2.02 µM) | 1.56 µg/mL (≈ 2.02 µM)
